Data published in patent US8980910B2, “Treatment of glaucoma” (Indiana University Research and Technology Corporation, priority 2011, dated 2015).
Entries after “also recorded” stand apart in the source; their conditions may differ.

Legend:
[1] = tested on: isoflurane-anesthetized rats; assay: infusion of bicuculline methiodide into the region of the DMH, simultaneous measurement of blood pressure, heart rate and IOP; format: in vivo, rat; settings: BMI 30 pmol/75 nL into the DMH vs saline vehicle
Description: FIG. 2A-C Simultaneous measurement of blood pressure (FIG. 2A), heart rate (FIG. 2B), and IOP (FIG. 2C) in a series of isoflurane-anesthetized rats after infusion of bicuculline methiodide (30 pmol/75 nL; n=9) or saline vehicle (75 nL; n=10) into the region of the DMH. * indicates a significant difference (p<0.05) between the vehicle treated and the BMI treated group using a repeated measures ANOVA followed by post-hoc analysis for differences between timepoints using a t-test.
To investigate whether orexin containing neurons located in the dorsornedial hypothalamus (DMH) and/or perifornical (PeF) area play a role in mediating the circadian fluctuations in IOP, isoflurane-anesthetized rats were administered orexin inhibitors and their vital functions were monitored.

panic-prone rats = settings: 30 mg/kg i.p. prior to 15 min i.v. infusion of 0.5M sodium lactate
Excerpt: Panic disorder is associated with disruption of central inhibitory gamma-aminobutyric acid (GABAergic) tone, and may contribute to panic attacks which are consistently provoked by ordinarily mild physical stressors such as mild osmotic disturbances (e.g., intravenous sodium lactate challenges). […] Orexin/hypocretin producing neurons are almost exclusive to dorsomedial hypothalamus/perifornical area and adjacent lateral hypothalamus, and play a critical role in maintaining wakefulness, vigilance and central sympathetic mobilization, which are key components of panic and anxiety. Experiments were conducted to investigate whether the administration of either a systemic orexin 1 antagonist or silencing the hypothalamic orexin gene product with RNA interference could block lactate-induced panic responses.

[2] = tested on: isoflurane anesthetized rat; assay: attenuation of physiologic responses to BMI microinjection into the DMH by systemic orexin-1 receptor antagonist; format: in vivo; settings: 30 mg/kg i.p.; BMI 20 pmol/50 nL into the DMH before and after antagonist; FIG. 3; listed as SB334861
Description: FIG. 3 Continuous and simultaneous measurement of blood pressure, heart rate, and core body temperature in an isoflurane anesthetized rat after identical microinjections of BMI (20 pmol/50 nL) into the DMH (time marks 1 and 3) before and after systemic administration of the orexin-1 receptor antagonist SB334861 (30 mg/kg i.p.; time mark 2).
Experiments were then conducted to determine whether an orexin-I receptor antagonist (SB334861) could attenuate the physiologic responses to chemical stimulation of the DMH. To test orexin inhibitors ability to attenuate the BMI stimulated response, BMI was administered to an isoflurane-anesthetized rat both before and after administration of the orexin inhibitor and the responses were monitored.

[3] = biological target: T1, orexin receptor-1 (ORX 1) (Homo sapiens, UniProt O43613); settings: orexin A relative to orexin B; cited from earlier work
T1 sequence (O43613 1-425): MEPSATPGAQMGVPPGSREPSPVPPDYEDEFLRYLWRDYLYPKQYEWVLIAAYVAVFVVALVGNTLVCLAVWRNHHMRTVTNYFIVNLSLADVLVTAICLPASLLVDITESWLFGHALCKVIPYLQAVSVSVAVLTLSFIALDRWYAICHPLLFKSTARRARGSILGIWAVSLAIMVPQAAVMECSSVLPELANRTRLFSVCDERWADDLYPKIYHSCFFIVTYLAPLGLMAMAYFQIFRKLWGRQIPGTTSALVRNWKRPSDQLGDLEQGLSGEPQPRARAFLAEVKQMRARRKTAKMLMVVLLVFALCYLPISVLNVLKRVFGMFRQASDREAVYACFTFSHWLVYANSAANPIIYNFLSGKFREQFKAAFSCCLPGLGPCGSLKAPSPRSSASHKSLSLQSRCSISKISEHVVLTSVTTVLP

## C[N+]1(C)CCc2cc3c(cc2[C@H]1[C@@H]1OC(=O)c2c1ccc1c2OCO1)OCO3.[I-] [BMI, bicuculline methiodide]
[1]; FIG. 2A
  blood pressure after chemical stimulation of the DMH: expected increases
[1]; FIG. 2B
  heart rate after chemical stimulation of the DMH: expected increases
[1]; FIG. 2C
  IOP after chemical stimulation of the DMH: evoked an increase

## Cc1nc2ccc(NC(=O)Nc3ccnc4cccnc34)cc2o1 [SB334867, 1-(2-methylbenzoxazol-6-yl)-3-[1,5]naphthyridin-4-yl urea]
panic-prone rats; FIG. 1C
  lactate induced increases in core body temperature (thermogenic response): attenuated; also recorded: blocks
panic-prone rats; FIG. 1D
  lactate induced increases in heart rate (cardioexcitatory response): attenuated; also recorded: blocks
[2]
  BMI-evoked increase in blood pressure: significant attenuation
  BMI-evoked increase in core body temperature: significant attenuation
  BMI-evoked increase in heart rate: significant attenuation

## orexin A: 33-amino acid neuropeptide, endogenous ligand of orexin receptors (QPLPDCCRQKTCSCRLYELLHGAGNHAAGILTL; Orexin-A; UniProt O43612 34-66, looked up)
[3]
  affinity of ORX 1 for orexin A greater than for orexin B: 1 order of magnitude
